# Test results as given in patent publication US6905706B2, “Medicinal herbal extract carpediol for treating depression” (Swedish Herbal Institute, priority 2002, dated 2005).
# Marks after values point to notes of the source that are not given here.
# What was measured:
# [1] = system: Male Wistar rats; assay: Behavioral despair "forced swimming" test; type: in vivo, rat; settings: 30 min pretreatment; for Duration of immobility: mean ± SEM
# Text: Behavioral despair was proposed as a model to test for antidepressant activity by Porsolt et al (25-27). […] This behavior reflects a state of despair which can be reduced by several agents which are therapeutically effective in human depression.
# Procedure—The procedure described by Porsolt et al. (25-27) was used with minor modifications described by Chatterjee et al. (28-29). Male Wistar rats weighing 170-200 g were used. They were brought to the laboratory at least one day before the experiment and were housed separately in cages with free access to food and water. Naive rats were individually forced to swim inside a vertical glass cylinder (height: 50 cm; diameter: 25 cm, containing 20 cm of water maintained at 25° C.). […] After 2-3 minutes, activity began to subside and to be interspersed with phases of immobility or floating of increasing length. After 5-6 minutes, immobility reached a plateau where the rats remained immobile for approximately 80% of the time. After 15 minutes in the water, the rats were removed and allowed to dry in a heated enclosure (32° C.) before being returned to their home cages. Total immobility time, i.e., the time of complete cessation of swimming with the head floating just above water level, was quantified 48 hours later after re-exposing them to the water for 5 minutes. They were placed in the cylinder 48 hours later and the total duration of immobility was measured during a 5 minute test. […] An animal was judged to be immobile whenever it remained floating passively in the water in a slightly hunched but upright position, its nose just above the surface. Test samples (Hypericum extracts: HP, HPSE, Jarsin 300, HRFC, Crassulaceae special extracts, Carpediol) and standard drugs (amitriptyline and Imipramine) were administered 3 times immediately after pre-exposure, and 24 and one hour prior to testing (re-exposure) as described in Chatterjee et al., Antidepressant activity of Hypericum perforatum and Hyperforin: the neglected possibility. Pharmacopsychiatry. 31 (Suppl 1):7-15 1998), which is incorporated by reference herein in its entirety.
# Evaluation—Duration of immobility was measured in controls and animals treated with various doses of a test drug or standard. Antidepressant drugs, but also stimulants like amphetamine and caffeine, reduced duration of immobility. Dose-responses were evaluated.
# Two series of experiments were performed with the following test drugs:
# Series A: HP, HPSE, HRFC, CRE, Jarsin, amitriptyline.
# Series B: CRE-A, CRE-B, CRE-C, CRE-D, ASFC, imipramine.
# They were group-housed, four per cage at ambient temperature of 20±2° and 40-50% relative humidity, with a 12 hour dark/12 hour light cycle (lighting on time 8 a.m.). The animals had free access to pellet chow (Comby) and drinking water.
# The extracts were administered once daily for 3 consecutive days. Experiments were performed on day 3, 1 hour after the last drug or vehicle application. Amitriptyline was used as the standard antidepressant, and was administered in a single dose of 3 mg/kg (p.o.) with a pretreatment time of 30 min.
# They were administered in a volume of 5 ml/kg (p.o.). The extracts were administered once daily for 3 consecutive days. Experiments were performed on day 3, 1 hour after the last drug or vehicle application. Imipramine-HCl diluted with water to concentration of 6 mg/ml, positive control was used as the standard antidepressant. Imipramine was administered in a single dose of 30 mg/kg (p.o.) with a pretreatment time of 30 minutes. All behavioral studies were performed between 1-3 p.m. and recorded by a video camera. The tapes were evaluated afterwards by an observer who was not informed about the type of treatment each animal had received.
# Statistics—Statistical analysis of the duration of immobilization time of rats in swimming test was performed by unpaired two tailed Students t-test with significance 95% confidence interval. […]
# [2] = simultaneous application; cited from earlier work
# [3] = Series A, 3 mg/kg p.o. single dose
# [4] = Series B, 30 mg/kg p.o. single dose
structure (smiles),measurement,setting,value
CN(C)CCC=C1c2ccccc2CCc2ccccc21 [Amitriptyline],Percent (duration of immobility vs vehicle),[1]; [3],66.3%
same,Percent decrease (duration of immobility),[1]; [3],43.7%
same,Duration of immobility,[1]; [3],"117.8 ± 33.32, n = 8 seconds"
CN(C)CCCN1c2ccccc2CCc2ccccc21 [Imipramine],Percent (duration of immobility vs vehicle),[1]; [4],34.9*** Percent
same,Percent decrease (duration of immobility),[1]; [4],65.1*** Percent
same,Duration of immobility,[1]; [4],76.0 ± 21.1 n = 6 Seconds
CN/C(=N/CCSCc1nc[nH]c1C)NC#N [cimetidine],Effect on the metabolism of theophylline (in words),[2],inhibit
CC(C)NCC(O)COc1cccc2ccccc12 (centres unmarked) [propranolol],Effect on the metabolism of theophylline (in words),[2],inhibit
